From article PMC8765783, “Identification of the potential active site of the septal peptidoglycan polymerase FtsW” (PLoS Genetics, 2022)

Columns and labels:
Assay in all cases: fluorescence anisotropy
Format in all cases: binding
Conditions in all cases: 50 mM Hepes pH 7.5, 0.1 M NaCl, 0.005% DDM, 0.2% CHAPS, 21°C, 0.33 μM probe; labelled compound
[1] = biological target: T1, HisFtsW-FtsI(PBP3) complex (FtsW-FtsI/PBP3, "W 3") (Escherichia coli, UniProt P0ABG4, P196T)
T1 construct: His-tagged FtsW co-expressed with untagged FtsI/PBP3 from pDML2041 in E. coli C43(DE3); DDM-solubilised membranes, HisTrap, G25 desalting; tag kept; with Peptidoglycan D,D-transpeptidase FtsI
T1 sequence (P0ABG4 1-414 P196T): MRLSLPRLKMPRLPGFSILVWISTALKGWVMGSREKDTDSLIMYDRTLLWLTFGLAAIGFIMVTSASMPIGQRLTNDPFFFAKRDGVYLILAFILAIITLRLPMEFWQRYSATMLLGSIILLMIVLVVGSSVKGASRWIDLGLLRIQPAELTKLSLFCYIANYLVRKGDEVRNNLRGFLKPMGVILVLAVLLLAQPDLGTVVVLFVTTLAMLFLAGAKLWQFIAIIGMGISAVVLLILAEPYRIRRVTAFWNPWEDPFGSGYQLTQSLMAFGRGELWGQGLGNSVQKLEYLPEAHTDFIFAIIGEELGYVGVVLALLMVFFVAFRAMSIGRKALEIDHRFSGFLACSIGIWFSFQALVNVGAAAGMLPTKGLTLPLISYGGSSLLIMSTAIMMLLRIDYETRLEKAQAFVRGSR
T1 sequence (P0AD68 1-577 partner): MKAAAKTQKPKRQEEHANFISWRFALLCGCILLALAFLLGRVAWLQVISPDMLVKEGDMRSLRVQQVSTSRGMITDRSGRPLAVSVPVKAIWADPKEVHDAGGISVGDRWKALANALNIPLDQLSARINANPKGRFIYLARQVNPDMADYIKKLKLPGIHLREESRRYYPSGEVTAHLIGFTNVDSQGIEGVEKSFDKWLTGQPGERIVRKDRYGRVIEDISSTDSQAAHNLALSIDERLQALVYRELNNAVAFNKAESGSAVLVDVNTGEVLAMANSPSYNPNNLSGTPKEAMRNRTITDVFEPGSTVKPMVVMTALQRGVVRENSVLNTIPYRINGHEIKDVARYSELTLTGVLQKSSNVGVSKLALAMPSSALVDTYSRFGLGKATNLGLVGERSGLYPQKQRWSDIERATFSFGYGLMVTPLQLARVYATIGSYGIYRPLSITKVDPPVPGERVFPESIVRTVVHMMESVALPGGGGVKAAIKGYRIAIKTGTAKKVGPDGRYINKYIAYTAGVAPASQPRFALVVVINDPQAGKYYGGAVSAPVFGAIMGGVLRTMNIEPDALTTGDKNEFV
Text: (§1) fluorescence anisotropy on HisFtsW-FtsI(PBP3) complex (FtsW-FtsI/PBP3, "W 3")

[2] = biological target: T2, HisFtsW-FtsI(PBP3) complex (FtsW-FtsI/PBP3, "W 3") (Escherichia coli, UniProt P0ABG4, R243L)
T2 construct: His-tagged FtsW co-expressed with untagged FtsI/PBP3 from pDML2041 in E. coli C43(DE3); DDM-solubilised membranes, HisTrap, G25 desalting; tag kept; with Peptidoglycan D,D-transpeptidase FtsI
T2 sequence (P0ABG4 1-414 R243L): T1 sequence (P0ABG4 1-414 P196T)
T2 sequence (P0AD68 1-577 partner): T1 sequence (P0AD68 1-577 partner)
Text: as §1

[3] = biological target: T3, HisFtsW-FtsI(PBP3) complex (FtsW-FtsI/PBP3, "W 3") (Escherichia coli, UniProt P0ABG4, D297A)
T3 construct: His-tagged FtsW co-expressed with untagged FtsI/PBP3 from pDML2041 in E. coli C43(DE3); DDM-solubilised membranes, HisTrap, G25 desalting; tag kept; with Peptidoglycan D,D-transpeptidase FtsI
T3 sequence (P0ABG4 1-414 D297A): T1 sequence (P0ABG4 1-414 P196T)
T3 sequence (P0AD68 1-577 partner): T1 sequence (P0AD68 1-577 partner)
Text: as §1

[4] = biological target: T4, HisFtsW-FtsI(PBP3) complex (FtsW-FtsI/PBP3, "W 3") (Escherichia coli, UniProt P0ABG4, Q147E)
T4 construct: His-tagged FtsW co-expressed with untagged FtsI/PBP3 from pDML2041 in E. coli C43(DE3); DDM-solubilised membranes, HisTrap, G25 desalting; tag kept; with Peptidoglycan D,D-transpeptidase FtsI
T4 sequence (P0ABG4 1-414 Q147E): T1 sequence (P0ABG4 1-414 P196T)
T4 sequence (P0AD68 1-577 partner): T1 sequence (P0AD68 1-577 partner)
Text: as §1

[5] = biological target: T5, HisFtsW-FtsI(PBP3) complex (FtsW-FtsI/PBP3, "W 3") (Escherichia coli, UniProt P0ABG4, Y242H)
T5 construct: His-tagged FtsW co-expressed with untagged FtsI/PBP3 from pDML2041 in E. coli C43(DE3); DDM-solubilised membranes, HisTrap, G25 desalting; tag kept; with Peptidoglycan D,D-transpeptidase FtsI
T5 sequence (P0ABG4 1-414 Y242H): T1 sequence (P0ABG4 1-414 P196T)
T5 sequence (P0AD68 1-577 partner): T1 sequence (P0AD68 1-577 partner)
Text: as §1

[6] = biological target: T6, HisFtsW-FtsI(PBP3) complex (FtsW-FtsI/PBP3, "W 3") (Escherichia coli, UniProt P0ABG4, A135T)
T6 construct: His-tagged FtsW co-expressed with untagged FtsI/PBP3 from pDML2041 in E. coli C43(DE3); DDM-solubilised membranes, HisTrap, G25 desalting; tag kept; with Peptidoglycan D,D-transpeptidase FtsI
T6 sequence (P0ABG4 1-414 A135T): T1 sequence (P0ABG4 1-414 P196T)
T6 sequence (P0AD68 1-577 partner): T1 sequence (P0AD68 1-577 partner)
Text: as §1

[7] = biological target: T7, HisFtsW-FtsI(PBP3) complex (FtsW-FtsI/PBP3, "W 3") (Escherichia coli, UniProt P0ABG4, G199A)
T7 construct: His-tagged FtsW co-expressed with untagged FtsI/PBP3 from pDML2041 in E. coli C43(DE3); DDM-solubilised membranes, HisTrap, G25 desalting; tag kept; with Peptidoglycan D,D-transpeptidase FtsI
T7 sequence (P0ABG4 1-414 G199A): T1 sequence (P0ABG4 1-414 P196T)
T7 sequence (P0AD68 1-577 partner): T1 sequence (P0AD68 1-577 partner)
Text: as §1

[8] = biological target: T8, HisFtsW-FtsI(PBP3) complex (FtsW-FtsI/PBP3, "W 3") (Escherichia coli, UniProt P0ABG4, G371S)
T8 construct: His-tagged FtsW co-expressed with untagged FtsI/PBP3 from pDML2041 in E. coli C43(DE3); DDM-solubilised membranes, HisTrap, G25 desalting; tag kept; with Peptidoglycan D,D-transpeptidase FtsI
T8 sequence (P0ABG4 1-414 G371S): T1 sequence (P0ABG4 1-414 P196T)
T8 sequence (P0AD68 1-577 partner): T1 sequence (P0AD68 1-577 partner)
Text: as §1

[9] = biological target: T9, HisFtsW-FtsI(PBP3) complex (FtsW-FtsI/PBP3, "W 3") (Escherichia coli, UniProt P0ABG4, G381D)
T9 construct: His-tagged FtsW co-expressed with untagged FtsI/PBP3 from pDML2041 in E. coli C43(DE3); DDM-solubilised membranes, HisTrap, G25 desalting; tag kept; with Peptidoglycan D,D-transpeptidase FtsI
T9 sequence (P0ABG4 1-414 G381D): T1 sequence (P0ABG4 1-414 P196T)
T9 sequence (P0AD68 1-577 partner): T1 sequence (P0AD68 1-577 partner)
Text: as §1

[10] = biological target: T10, HisFtsW-FtsI(PBP3) complex (FtsW-FtsI/PBP3, "W 3") (Escherichia coli, UniProt P0ABG4, W138A)
T10 construct: His-tagged FtsW co-expressed with untagged FtsI/PBP3 from pDML2041 in E. coli C43(DE3); DDM-solubilised membranes, HisTrap, G25 desalting; tag kept; with Peptidoglycan D,D-transpeptidase FtsI
T10 sequence (P0ABG4 1-414 W138A): T1 sequence (P0ABG4 1-414 P196T)
T10 sequence (P0AD68 1-577 partner): T1 sequence (P0AD68 1-577 partner)
Text: as §1

[11] = biological target: T11, HisFtsW-FtsI(PBP3) complex (FtsW-FtsI/PBP3, "W 3") (Escherichia coli, UniProt P0ABG4)
T11 construct: His-tagged FtsW co-expressed with untagged FtsI/PBP3 from pDML2041 in E. coli C43(DE3); DDM-solubilised membranes, HisTrap, G25 desalting; tag kept; with Peptidoglycan D,D-transpeptidase FtsI
T11 sequence (P0ABG4 1-414): T1 sequence (P0ABG4 1-414 P196T)
T11 sequence (P0AD68 1-577 partner): T1 sequence (P0AD68 1-577 partner)

CC(=O)N[C@H]1[C@H](O[C@H]2[C@H](O[C@H](C)C(=O)N[C@@H](C)C(=O)N[C@H](CCC(=O)N[C@@H](CCCCNc3ccc([N+](=O)[O-])c4nonc34)C(=O)N[C@H](C)C(=O)N[C@H](C)C(=O)O)C(=O)O)[C@@H](NC(C)=O)[C@@H](OP(=O)(O)OP(=O)(O)OC/C=C(/C)CC/C=C(/C)CC/C=C(/C)CC/C=C(/C)CC/C=C(/C)CC/C=C(/C)CC/C=C(/C)CC/C=C(/C)CC/C=C(\C)CC/C=C(\C)CCC=C(C)C)O[C@@H]2CO)O[C@H](CO)[C@@H](O)[C@@H]1O [NBD-lipid II]
Kd [1]: 60 nM | Kd [2]: 70 nM | Kd [3]: 90 nM | Kd [4]: 70 nM | Kd [5]: 40 nM | Kd [6]: 60 nM | Kd [7]: 110 nM | Kd [8]: 50 nM | Kd [9]: 100 nM | Kd [10]: 60 nM | Kd [11]: 130 nM
